Assay: xn = mol fraction of the nth substance listed
Details: Liquid, Vibrating tube method

CC(C)OC(C)C [diisopropyl ether] + CC(C)O
mass density [kg/m3]
Details | x2 = 0.1503 | x2 = 0.2979 | x2 = 0.4228 | x2 = 0.5 | x2 = 0.6737 | x2 = 0.8483
298.15 K, 100 kPa | 725.5 | 732.6 | 739.4 | 743.7 | 754.9 | 768
298.15 K, 1000 kPa | 726.6 | 733.6 | 740.5 | 744.7 | 755.8 | 768.9
298.15 K, 5000 kPa | 731.3 | 738.2 | 744.8 | 749 | 759.9 | 772.6
298.15 K, 10000 kPa | 736.8 | 743.6 | 749.9 | 754 | 764.7 | 777.1
298.15 K, 15000 kPa | 742.1 | 748.6 | 754.6 | 758.8 | 769.1 | 781.3
298.15 K, 20000 kPa | 746.8 | 753.2 | 759.2 | 763.2 | 773.4 | 785.2
298.15 K, 25000 kPa | 751.4 | 757.6 | 763.5 | 767.5 | 777.4 | 789
298.15 K, 30000 kPa | 755.7 | 761.9 | 767.6 | 771.5 | 781.2 | 792.6
298.15 K, 35000 kPa | 759.7 | 765.8 | 771.5 | 775.2 | 784.8 | 796
298.15 K, 40000 kPa | 763.6 | 769.6 | 775.2 | 778.9 | 788.3 | 799.3
298.15 K, 45000 kPa | 767.4 | 773.2 | 778.8 | 782.4 | 791.7 | 802.6
298.15 K, 50000 kPa | 770.9 | 776.7 | 782.2 | 785.8 | 794.9 | 805.6
298.15 K, 55000 kPa | 774.4 | 780.1 | 785.5 | 789 | 798.1 | 808.6
298.15 K, 60000 kPa | 777.7 | 783.3 | 788.7 | 792.1 | 801.1 | 811.5
298.15 K, 65000 kPa | 780.9 | 786.5 | 791.8 | 795.2 | 804 | 814.3
298.15 K, 70000 kPa | 784 | 789.5 | 794.8 | 798.2 | 806.8 | 817.1
298.15 K, 80000 kPa | 789.9 | 795.3 | 800.5 | 803.8 | 812.3 | 822.3
298.15 K, 90000 kPa | 795.6 | 800.8 | 805.9 | 809.1 | 817.5 | 827.3
298.15 K, 100000 kPa | 800.8 | 806 | 810.9 | 814.2 | 822.4 | 832
298.15 K, 110000 kPa | 805.8 | 811 | 815.8 | 818.9 | 827.1 | 836.6
298.15 K, 120000 kPa | 810.5 | 815.6 | 820.4 | 823.5 | 831.5 | 840.8
298.15 K, 130000 kPa | 815.1 | 820.1 | 824.8 | 827.9 | 835.7 | 844.9
298.15 K, 140000 kPa | 819.5 | 824.4 | 829 | 832.1 | 839.8 | 848.9
313.15 K, 100 kPa | 709.6 | 716.9 | 724 | 728.5 | 740.2 | 754
313.15 K, 1000 kPa | 710.8 | 718.1 | 725.1 | 729.6 | 741.3 | 755
313.15 K, 5000 kPa | 716.3 | 723.3 | 730 | 734.4 | 745.9 | 759.2
313.15 K, 10000 kPa | 722.4 | 729.3 | 735.7 | 740.1 | 751.1 | 764.1
313.15 K, 15000 kPa | 728.1 | 734.8 | 741 | 745.3 | 756 | 768.7
313.15 K, 20000 kPa | 733.4 | 739.9 | 746 | 750.2 | 760.7 | 773
313.15 K, 25000 kPa | 738.2 | 744.6 | 750.7 | 754.6 | 764.8 | 776.9
313.15 K, 30000 kPa | 743.1 | 749.4 | 755.1 | 759.2 | 769.2 | 781
313.15 K, 35000 kPa | 747.6 | 753.6 | 759.3 | 763.3 | 773.1 | 784.7
313.15 K, 40000 kPa | 751.7 | 757.7 | 763.4 | 767.2 | 776.8 | 788.2
313.15 K, 45000 kPa | 755.7 | 761.6 | 767.2 | 770.9 | 780.4 | 791.7
313.15 K, 50000 kPa | 759.5 | 765.4 | 770.9 | 774.5 | 783.9 | 794.9
313.15 K, 55000 kPa | 763.3 | 769 | 774.4 | 778.1 | 787.3 | 798.1
313.15 K, 60000 kPa | 766.8 | 772.5 | 777.8 | 781.4 | 790.5 | 801.2
313.15 K, 65000 kPa | 770.2 | 775.8 | 781.1 | 784.7 | 793.7 | 804.2
313.15 K, 70000 kPa | 773.5 | 779 | 784.3 | 787.7 | 796.6 | 807
313.15 K, 80000 kPa | 779.6 | 785.1 | 790.3 | 793.6 | 802.3 | 812.5
313.15 K, 90000 kPa | 785.6 | 790.9 | 796 | 799.3 | 807.8 | 817.8
313.15 K, 100000 kPa | 791.2 | 796.3 | 801.3 | 804.5 | 812.9 | 822.7
313.15 K, 110000 kPa | 796.4 | 801.5 | 806.4 | 809.6 | 817.9 | 827.5
313.15 K, 120000 kPa | 801.3 | 806.4 | 811.2 | 814.4 | 822.4 | 832
313.15 K, 130000 kPa | 806.2 | 811.2 | 815.8 | 819 | 826.9 | 836.3
313.15 K, 140000 kPa | 810.9 | 815.8 | 820.2 | 823.5 | 831.3 | 840.6
333.15 K, 100 kPa | 687.4 | 694.9 | 702.4 | 707 | 719.4 | 734.1
333.15 K, 1000 kPa | 689 | 696.4 | 703.7 | 708.4 | 720.7 | 735.3
333.15 K, 5000 kPa | 695.4 | 702.6 | 709.5 | 714.2 | 726.1 | 740.2
333.15 K, 10000 kPa | 702.7 | 709.6 | 716.1 | 720.7 | 732.2 | 745.8
333.15 K, 15000 kPa | 709.3 | 716 | 722.3 | 726.8 | 737.9 | 751.1
333.15 K, 20000 kPa | 715.3 | 721.8 | 728 | 732.3 | 743.1 | 755.9
333.15 K, 25000 kPa | 720.9 | 727.3 | 733.3 | 737.5 | 748 | 760.5
333.15 K, 30000 kPa | 726.2 | 732.4 | 738.3 | 742.4 | 752.6 | 764.9
333.15 K, 35000 kPa | 731.1 | 737.2 | 743 | 747 | 757 | 769
333.15 K, 40000 kPa | 735.8 | 741.7 | 747.4 | 751.4 | 761.2 | 772.9
333.15 K, 45000 kPa | 740.2 | 746 | 751.7 | 755.4 | 765.1 | 776.6
333.15 K, 50000 kPa | 744.4 | 750.2 | 755.7 | 759.4 | 768.9 | 780.3
333.15 K, 55000 kPa | 748.4 | 754.1 | 759.6 | 763.2 | 772.6 | 783.8
333.15 K, 60000 kPa | 752.2 | 757.8 | 763.3 | 766.8 | 776.1 | 787
333.15 K, 65000 kPa | 756 | 761.5 | 766.9 | 770.4 | 779.4 | 790.3
333.15 K, 70000 kPa | 759.5 | 765 | 770.3 | 773.7 | 782.7 | 793.5
333.15 K, 80000 kPa | 766.3 | 771.6 | 776.8 | 780.1 | 788.9 | 799.3
333.15 K, 90000 kPa | 772.6 | 777.8 | 782.9 | 786.2 | 794.8 | 805
333.15 K, 100000 kPa | 778.5 | 783.6 | 788.6 | 791.8 | 800.2 | 810.2
333.15 K, 110000 kPa | 784.1 | 789.2 | 794 | 797.3 | 805.5 | 815.3
333.15 K, 120000 kPa | 789.4 | 794.4 | 799.1 | 802.3 | 810.4 | 820.1
333.15 K, 130000 kPa | 794.5 | 799.4 | 804 | – | – | –

— the NIST ThermoML archive (doi:10.1016/j.fluid.2018.04.012)
